Laboratory results from US20250057828A1, “COMBINATION OF AN A2-ADRENOCEPTOR SUBTYPE C (ALPHA-2C) ANTAGONIST WITH A NOREPINEPHRINE REUPTAKE INHIBITOR FOR THE TREATMENT OF SLEEP APNEA” (priority 2021, published 2025).

System: pig model of obstructive sleep apnea (OSA)
Test: pig model of obstructive sleep apnea (OSA): collapsibility of the upper respiratory tract under negative pressure
Assay type: in vivo, German Landrace pigs
Description: The therapeutic potential of the combination of an α2-Adrenoceptor subtype C (alpha-2C) antagonists with a muscarinic receptor antagonist according to the present invention in sleep apnea can be assessed preclinically in a pig model of obstructive sleep apnea (OSA).
Using negative pressure, it is possible to induce collapse and thus obstruction of the upper respiratory tract in anaesthetized, spontaneously breathing pigs (Wirth K. J. et al., Sleep 36(5) (2013) pp. 699-708).
German Landrace pigs are used for the model. The pigs are anaesthetized and tracheotomized. Two tracheal cannulas are inserted into the trachea, one into the rostral part and the other into the caudal part of the trachea. Using a connection piece, the rostral cannula is connected to a tube to the negative pressure device and to the distal tracheal cannula. The distal tracheal cannula is additionally connected to a tube with an open end to atmosphere via a connection piece that served for free tracheal breathing, circumventing the upper airway. By appropriate opening and clamping of those tubes breathing can be switched from nasal breathing to breathing through the caudal tracheal cannula, circumventing the upper airway, and the (isolated) upper airway can be connected to the negative pressure device, causing airflow in the inspiratory direction.
At certain points in time, the collapsibility of the upper respiratory tract is tested by having the pig breathe via the caudal cannula and applying negative pressures of −50, −100 and −150 cm water head (cm H2O) to the upper respiratory tract. This causes the upper respiratory tract to collapse, which manifests itself in an interruption of the airflow and a pressure drop in the tube system. This test is conducted prior to the administration of the test substance and at certain intervals after the administration of the test substance. An appropriately effective test substance can prevent this collapse of the respiratory tract in the inspiratory phase.

[1] = 0.01 mg/kg intraduodenal, 0 min
[2] = 0.01 mg/kg intraduodenal, 30 min
[3] = 0.01 mg/kg intraduodenal, 60 min
[4] = 0.01 mg/kg intraduodenal, 90 min
[5] = 0.01 mg/kg intraduodenal, 120 min
[6] = 0.01 mg/kg intraduodenal, 150 min
[7] = 0.01 mg/kg intraduodenal, 180 min
[8] = 0.01 mg/kg intraduodenal, 240 min
[9] = 0.01 mg/kg intraduodenal, 270 min
[10] = 0.01 mg/kg intraduodenal, 300 min
[11] = R-oxybutynin intravenous bolus 1 mg/kg + infusion 0.275 mg/kg/h for four hours, 0 min
[12] = R-oxybutynin intravenous bolus 1 mg/kg + infusion 0.275 mg/kg/h for four hours, 10 min
[13] = R-oxybutynin intravenous bolus 1 mg/kg + infusion 0.275 mg/kg/h for four hours, 30 min
[14] = R-oxybutynin intravenous bolus 1 mg/kg + infusion 0.275 mg/kg/h for four hours, 60 min
[15] = R-oxybutynin intravenous bolus 1 mg/kg + infusion 0.275 mg/kg/h for four hours, 120 min
[16] = R-oxybutynin intravenous bolus 1 mg/kg + infusion 0.275 mg/kg/h for four hours, 180 min
[17] = R-oxybutynin intravenous bolus 1 mg/kg + infusion 0.275 mg/kg/h for four hours, 240 min

## C[C@@H]1CCCN(C2CCN(c3ncc(C(=O)NCc4ncc(F)cc4F)s3)CC2)C1 [N-[(3,5-difluoropyridin-2-yl)methyl]-2-[(3R)-3-methyl[1,4′-bipiperidin]-1′-yl]-1,3-thiazole-5-carboxamide]
0.01 mg/kg intraduodenal
  inhibited upper airway collapsibility at all negative pressures of −50, −100 and −150 cm head (cm H2O) in all pigs: at no time point
0.01 mg/kg intraduodenal, time point 120 min
  upper airway collapsibility at the negative pressures of −50 and −100 cm head (cm H2O): inhibited
0.01 mg/kg intraduodenal, time point 150 min
  upper airway collapsibility at the negative pressure of −50 cm head (cm H2O): inhibited
[1]
  Percent pigs without collaps −50 cm H2O, %: 0%
  Percent pigs without collaps −100 cm H2O, %: 0%
  Percent pigs without collaps −150 cm H2O, %: 0%
[2]
  Percent pigs without collaps −50 cm H2O, %: 0%
  Percent pigs without collaps −100 cm H2O, %: 0%
  Percent pigs without collaps −150 cm H2O, %: 0%
[3]
  Percent pigs without collaps −50 cm H2O, %: 25%
  Percent pigs without collaps −100 cm H2O, %: 0%
  Percent pigs without collaps −150 cm H2O, %: 0%
[4]
  Percent pigs without collaps −50 cm H2O, %: 75%
  Percent pigs without collaps −100 cm H2O, %: 75%
  Percent pigs without collaps −150 cm H2O, %: 0%
[5]
  Percent pigs without collaps −50 cm H2O, %: 100%
  Percent pigs without collaps −100 cm H2O, %: 100%
  Percent pigs without collaps −150 cm H2O, %: 50%
[6]
  Percent pigs without collaps −50 cm H2O, %: 100%
  Percent pigs without collaps −100 cm H2O, %: 75%
  Percent pigs without collaps −150 cm H2O, %: 25%
[7]
  Percent pigs without collaps −50 cm H2O, %: 75%
  Percent pigs without collaps −100 cm H2O, %: 50%
  Percent pigs without collaps −150 cm H2O, %: 0%
[8]
  Percent pigs without collaps −50 cm H2O, %: 50%
  Percent pigs without collaps −100 cm H2O, %: 25%
  Percent pigs without collaps −150 cm H2O, %: 0%
[9]
  Percent pigs without collaps −50 cm H2O, %: 25%
  Percent pigs without collaps −100 cm H2O, %: 25%
  Percent pigs without collaps −150 cm H2O, %: 0%
[10]
  Percent pigs without collaps −50 cm H2O, %: 25%
  Percent pigs without collaps −100 cm H2O, %: 0%
  Percent pigs without collaps −150 cm H2O, %: 0%

## CCN(CC)CC#CCOC(=O)[C@](O)(c1ccccc1)C1CCCCC1 [R-oxybutynin, R-Oxybutynin]
R-Oxybutynin intravenous bolus 1 mg/kg + infusion 0,275 mg/kg/h, time point 60 min
  upper airway collapsibility at the negative pressure of −50 cm head (cm H2O): inhibited
[11]
  Percent pigs without collaps −50 cm H2O, %: 0%
  Percent pigs without collaps −100 cm H2O, %: 0%
  Percent pigs without collaps −150 cm H2O, %: 0%
[12]
  Percent pigs without collaps −50 cm H2O, %: 0%
  Percent pigs without collaps −100 cm H2O, %: 0%
  Percent pigs without collaps −150 cm H2O, %: 0%
[13]
  Percent pigs without collaps −50 cm H2O, %: 0%
  Percent pigs without collaps −100 cm H2O, %: 0%
  Percent pigs without collaps −150 cm H2O, %: 0%
[14]
  Percent pigs without collaps −50 cm H2O, %: 100%
  Percent pigs without collaps −100 cm H2O, %: 50%
  Percent pigs without collaps −150 cm H2O, %: 0%
[15]
  Percent pigs without collaps −50 cm H2O, %: 0%
  Percent pigs without collaps −100 cm H2O, %: 0%
  Percent pigs without collaps −150 cm H2O, %: 0%
[16]
  Percent pigs without collaps −50 cm H2O, %: 0%
  Percent pigs without collaps −100 cm H2O, %: 0%
  Percent pigs without collaps −150 cm H2O, %: 0%
[17]
  Percent pigs without collaps −50 cm H2O, %: 0%
  Percent pigs without collaps −100 cm H2O, %: 0%
  Percent pigs without collaps −150 cm H2O, %: 0%
Intravenous bolus 1 mg/kg followed by infusion of 0,275 mg/kg/h for four hours
  inhibited upper airway collapsibility at all negative pressures of −50, −100 and −150 cm head (cm H2O) in all pigs: at no time
